Tests used:
Type in all cases: in vivo
[1] = system: Setaria faberi (SETFA); experiment: Post-emergence glasshouse herbicide test; details: POST Application, 1000 g/h, after 13 days
Method: Seeds of a variety of test species are sown in standard soil in pots (Alopecurus myosuroides (ALOMY), Setaria faberi (SETFA), Echinochloa crus-galli (ECHCG), Solanum nigrum (SOLNI), Amaranthus retoflexus (AMARE), Ipomoea hederacea (IPOHE)). After cultivation for one day (pre-emergence) or after 8 days cultivation (post-emergence) under controlled conditions in a glasshouse (at 24/16° C., day/night; 14 hours light; 65% humidity), the plants are sprayed with an aqueous spray solution derived from the formulation of the technical active ingredient in acetone/water (50:50) solution containing 0.5% Tween 20 (polyoxyethelyene sorbitan monolaurate, CAS RN 9005-64-5). […] The test plants are then grown in a glasshouse under controlled conditions in a glasshouse (at 24/16° C., day/night; 14 hours light; 65% humidity) and watered twice daily. After 13 days for pre and post-emergence, the test is evaluated for the percentage damage caused to the plant. The biological activities are shown in the following table on a five point scale (5=80-100%; 4=60-79%; 3=40-59%; 2=20-39%; 1=0-19%).

[2] = system: Ipomoea hederacea (IPOHE); experiment: Post-emergence glasshouse herbicide test; details: POST Application, 1000 g/h, after 13 days
Method: (§1) Seeds of a variety of test species are sown in standard soil in pots (Alopecurus myosuroides (ALOMY), Setaria faberi (SETFA), Echinochloa crus-galli (ECHCG), Solanum nigrum (SOLNI), Amaranthus retoflexus (AMARE), Ipomoea hederacea (IPOHE)). After cultivation for one day (pre-emergence) or after 8 days cultivation (post-emergence) under controlled conditions in a glasshouse (at 24/16° C., day/night; 14 hours light; 65% humidity), the plants are sprayed with an aqueous spray solution derived from the formulation of the technical active ingredient in acetone/water (50:50) solution containing 0.5% Tween 20 (polyoxyethelyene sorbitan monolaurate, CAS RN 9005-64-5). Compounds ae applied at 1000 g/h. The test plants are then grown in a glasshouse under controlled conditions in a glasshouse (at 24/16° C., day/night; 14 hours light; 65% humidity) and watered twice daily. After 13 days for pre and post-emergence, the test is evaluated for the percentage damage caused to the plant. The biological activities are shown in the following table on a five point scale (5=80-100%; 4=60-79%; 3=40-59%; 2=20-39%; 1=0-19%).

[3] = system: Echinochloa crus-galli (ECHCG); experiment: Post-emergence glasshouse herbicide test; details: POST Application, 1000 g/h, after 13 days
Method: as §1

[4] = system: Alopecurus myosuroides (ALOMY); experiment: Post-emergence glasshouse herbicide test; details: POST Application, 1000 g/h, after 13 days
Method: as §1

[5] = system: Solanum nigrum (SOLNI); experiment: Post-emergence glasshouse herbicide test; details: POST Application, 1000 g/h, after 13 days
Method: as §1

[6] = system: Amaranthus retoflexus (AMARE); experiment: Post-emergence glasshouse herbicide test; details: POST Application, 1000 g/h, after 13 days
Method: as §1

[7] = system: Ipomoea hederacea (IPOHE); experiment: Pre-emergence glasshouse herbicide test; details: PRE Application, 1000 g/h, after 13 days
Method: as §1

[8] = system: Echinochloa crus-galli (ECHCG); experiment: Pre-emergence glasshouse herbicide test; details: PRE Application, 1000 g/h, after 13 days
Method: as §1

[9] = system: Alopecurus myosuroides (ALOMY); experiment: Pre-emergence glasshouse herbicide test; details: PRE Application, 1000 g/h, after 13 days
Method: as §1

[10] = system: Setaria faberi (SETFA); experiment: Pre-emergence glasshouse herbicide test; details: PRE Application, 1000 g/h, after 13 days
Method: as §1

[11] = system: Solanum nigrum (SOLNI); experiment: Pre-emergence glasshouse herbicide test; details: PRE Application, 1000 g/h, after 13 days
Method: as §1

[12] = system: Amaranthus retoflexus (AMARE); experiment: Pre-emergence glasshouse herbicide test; details: PRE Application, 1000 g/h, after 13 days
Method: as §1

Structure (SMILES) | percentage damage caused to the plant, SETFA [1] | percentage damage caused to the plant, IPOHE [2] | percentage damage caused to the plant, ECHCG [3] | percentage damage caused to the plant, ALOMY [4] | percentage damage caused to the plant, SOLNI [5] | percentage damage caused to the plant, AMARE [6] | percentage damage caused to the plant, IPOHE [7] | percentage damage caused to the plant, ECHCG [8] | percentage damage caused to the plant, ALOMY [9] | percentage damage caused to the plant, SETFA [10] | percentage damage caused to the plant, SOLNI [11] | percentage damage caused to the plant, AMARE [12]
CCn1c(=O)c(C(=O)Nc2nnnn2C)cc2cnccc21 [Compound 2.003] | 1 (1=0-19%) | 2 (2=20-39%) | 1 (1=0-19%) | 1 (1=0-19%) | 3 (3=40-59%) | 3 (3=40-59%) | 1 (1=0-19%) | 1 (1=0-19%) | 1 (1=0-19%) | 1 (1=0-19%) | 1 (1=0-19%) | 1 (1=0-19%)
Cc1nc2c(cc1F)cc(C(=O)Nc1nnnn1C)c(=O)n2-c1ccsc1 [Compound 6.002] | 2 (2=20-39%) | 5 (5=80-100%) | 4 (4=60-79%) | 1 (1=0-19%) | 5 (5=80-100%) | 5 (5=80-100%) | 2 (2=20-39%) | 1 (1=0-19%) | 1 (1=0-19%) | 1 (1=0-19%) | 4 (4=60-79%) | 5 (5=80-100%)
Cn1ncnc1NC(=O)c1nc2ccccc2n(-c2ccccc2)c1=O [Compound 5.041] | 1 (1=0-19%) | 5 (5=80-100%) | 1 (1=0-19%) | 2 (2=20-39%) | 5 (5=80-100%) | 5 (5=80-100%) | 2 (2=20-39%) | 1 (1=0-19%) | 1 (1=0-19%) | 1 (1=0-19%) | 5 (5=80-100%) | 5 (5=80-100%)
Cn1nnnc1NC(=O)c1cc2cccnc2n(C)c1=O [Compound 1.001] | 1 (1=0-19%) | 2 (2=20-39%) | 3 (3=40-59%) | 1 (1=0-19%) | 5 (5=80-100%) | 3 (3=40-59%) | 1 (1=0-19%) | 1 (1=0-19%) | 1 (1=0-19%) | 1 (1=0-19%) | 2 (2=20-39%) | 2 (2=20-39%)
COc1ccc(-n2c(=O)c(C(=O)Nc3nnnn3C)nc3ccccc32)cc1F [Compound 5.033] | 4 (4=60-79%) | 5 (5=80-100%) | 5 (5=80-100%) | 1 (1=0-19%) | 5 (5=80-100%) | 5 (5=80-100%) | 5 (5=80-100%) | 5 (5=80-100%) | 2 (2=20-39%) | 1 (1=0-19%) | 5 (5=80-100%) | 5 (5=80-100%)
Cc1ccc(-n2c(=O)c(C(=O)Nc3nnnn3C)nc3ccccc32)cc1 [Compound 5.012] | 4 (4=60-79%) | 5 (5=80-100%) | 5 (5=80-100%) | 2 (2=20-39%) | 5 (5=80-100%) | 5 (5=80-100%) | 5 (5=80-100%) | 5 (5=80-100%) | 2 (2=20-39%) | 3 (3=40-59%) | 5 (5=80-100%) | 5 (5=80-100%)
Cc1cccc(-n2c(=O)c(C(=O)Nc3nnnn3C)nc3ccccc32)n1 [Compound 5.003] | 5 (5=80-100%) | 5 (5=80-100%) | 5 (5=80-100%) | 5 (5=80-100%) | 5 (5=80-100%) | 5 (5=80-100%) | 5 (5=80-100%) | 5 (5=80-100%) | 5 (5=80-100%) | 5 (5=80-100%) | 5 (5=80-100%) | 5 (5=80-100%)
Cc1cc(-n2c(=O)c(C(=O)Nc3nnnn3C)nc3ccccc32)ccc1Cl [Compound 5.036] | 4 (4=60-79%) | 5 (5=80-100%) | 5 (5=80-100%) | 2 (2=20-39%) | 5 (5=80-100%) | 5 (5=80-100%) | 5 (5=80-100%) | 3 (3=40-59%) | 3 (3=40-59%) | 4 (4=60-79%) | 5 (5=80-100%) | 5 (5=80-100%)
Cn1nnnc1NC(=O)c1nc2ccccc2n(-c2cc(Cl)cc(Cl)c2)c1=O [Compound 5.017] | 5 (5=80-100%) | 4 (4=60-79%) | 2 (2=20-39%) | 5 (5=80-100%) | 5 (5=80-100%) | 5 (5=80-100%) | 4 (4=60-79%) | 1 (1=0-19%) | 4 (4=60-79%) | 5 (5=80-100%) | 5 (5=80-100%) | 5 (5=80-100%)
Cn1nnnc1NC(=O)c1nc2ccccc2n(-c2ccc(Cl)cc2)c1=O [Compound 5.015] | 5 (5=80-100%) | 5 (5=80-100%) | 5 (5=80-100%) | 4 (4=60-79%) | 5 (5=80-100%) | 5 (5=80-100%) | 5 (5=80-100%) | 5 (5=80-100%) | 2 (2=20-39%) | 5 (5=80-100%) | 5 (5=80-100%) | 5 (5=80-100%)
Cc1cccc(-n2c(=O)c(C(=O)Nc3ncnn3C)nc3ccccc32)n1 [Compound 5.038] | 5 (5=80-100%) | 5 (5=80-100%) | 2 (2=20-39%) | 5 (5=80-100%) | 5 (5=80-100%) | 5 (5=80-100%) | 3 (3=40-59%) | 1 (1=0-19%) | 4 (4=60-79%) | 4 (4=60-79%) | 5 (5=80-100%) | 5 (5=80-100%)
